Experimental data as given in US5043340A, “Derivatives of 4-desacetyl VLB C-3 carboxhydrazide” (Eli Lilly and Company, priority 1990, dated 1991).
Structures can show the parent of a compound that is named as a salt. Where two headings read alike, the source gives them in different places.

Experiments:
[1] = tested on: experimental malignancies; conditions: in vivo; cited from earlier work
pKa = format: physicochemical; conditions: for pKa (first value) / pKa (second value) / pKa (third value): 66% DMF
[2] = tested on: human leukemic cells (CCRF-CEM cell line); assay: CCRF-CEM Cytotoxicity Assay (72 h, Coulter particle counter); format: cell-based; conditions: 37° C., read-out: IC50 (concentration giving 50% growth inhibition)
Method: The CEM cells were grown in RPMI 1640 media (MA Bioproducts) at 37° C. in humidified atmospheric conditions of 95% air and 5% CO2. The cells were grown in static suspension and maintained in log growth phase at a concentration of 3-7×10^5 cells/ml. The cells were dispersed in wells at a concentration of 4.8×10^4 /well. The drug was dissolved in dimethyl sulfoxide and was added at different dilutions to the cluster plates (wells). The cluster plates were incubated at 37° C. for 72 hours. After 72 hours the wells were read using a ZBI Coulter particle counter. Table 3 below gives the results of such testing of several compounds represented by Formula I above. In the table, Column 1 gives the name of the compound and Column 2 gives the IC50 (concentration giving 50% growth inhibition) in μg/ml.

[3] = tested on: human lung adenocarcinoma cells (P3/UCLA cell line); assay: P3/UCLA - GIEMSA ASSAY (5 days); format: cell-based; conditions: 120 h, 37° C., free compound, read-out: IC50 (concentration giving 50% growth inhibition)
[4] = tested on: P3/UCLA lung adenocarcinoma xenografts; assay: in vivo test against xenografts of P3/UCLA lung adenocarcinoma in female nude mice; conditions: days 2, 5 and 8, 28-day results
Method: The compounds were tested in vivo against xenografts of P3/UCLA lung adenocarcinoma in female nude mice. The test was begun by implanting each mouse with 10^7 P3/UCLA tumor cells, subcutaneously. On each of days 2, 5, and 8 after implantation, each mouse was injected with a conjugate or a compound in physiological buffered saline. Control mice were injected with saline only. The doses of conjugate or of vinca intermediate (based on vinca hydrazide content) are indicated below. The size of the tumors induced by implantation was measured on days 14, 21, and 28 after implantation. Each treatment group consisted of five mice.

[5] = solvent not given, read-out: pKa (first value)
[6] = 66% dmf, read-out: pKa (second value)
[7] = 66% dmf, read-out: pKa (first value)
[8] = 66% dmf, read-out: pKa (third value)
[9] = 1.00 mg/kg (based on vinca hydrazide content)
[10] = 2.00 mg/kg (based on vinca hydrazide content)

In the case of `CCC1(O)CN2CCc3c([nH]c4ccccc34)C(C(=O)OC)(c3cc4c(cc3OC)N(C)C3C(O)(C(=O)OC)CC5(CC)C=CCN6CCC43C65)CC(C2)C1O` (centres unmarked) [4-desacetoxy-3'-hydroxyvinblastine], the “found active in the treatment of experimental malignancies in animals” value (from here on “found active in the treatment”) [1] is listed as “active”.
In the case of `CCC1(O)CC2CN(CCc3c([nH]c4ccccc34)C(C(=O)OC)(c3cc4c(cc3OC)N(C)C3C(O)(C(=O)OC)CC5(CC)C=CCN6CCC43C65)C2)C1` (centres unmarked) [4-desacetoxyvinblastine], the “found active in the treatment” value [1] is listed as “active”.
Work on `CC(=O)CCCC(=O)NCCC(=O)O` [6-[(2-Carboxyethyl)amino]-2,6-dioxohexane] yielded a pKa (pKa; [5]) of 7.1.
In the case of `CCC1(O)CC2CN(CCc3c([nH]c4ccccc34)C(C(=O)OC)(c3cc4c(cc3OC)N(C)C3C(O)(C(=O)NN=C(C)CCCC(=O)O)C(O)C5(CC)C=CCN6CCC43C65)C2)C1` (centres unmarked) [Example 2, 4-Desacetyl VLB C-3 N^2-(4-carboxy-1-methylbutylidene)carboxhydrazide], the “pKa (first value)” value (pKa) is reported as 5.1, the “pKa (second value)” value (pKa) is reported as 6.6 and the “pKa (third value)” value (pKa) is reported as 7.7.
With `CCC1(O)CC2CN(CCc3c([nH]c4ccccc34)C(C(=O)OC)(c3cc4c(cc3OC)N(C)C3C(O)(C(=O)NN=C(C)CCCCC(=O)O)C(O)C5(CC)C=CCN6CCC43C65)C2)C1` (centres unmarked) [Example 4, 4-Desacetyl VLB C-3 N^2-(5-carboxy-1-methylpentylidene)carboxhydrazide] the “pKa (first value)” value (pKa) was 5.3, the “pKa (third value)” value (pKa) was 8.1 and the pKa (pKa; [6]) was 7.
In the case of `CCC1(O)CC2CN(CCc3c([nH]c4ccccc34)C(C(=O)OC)(c3cc4c(cc3OC)N(C)C3C(O)(C(=O)NN=C(C)CCCCC(=O)O)C(O)C5(CC)C=CCN6CCC43C65)C2)C1` (centres unmarked) [Example 5, 4-Desacetyl VLB C-3 N^2-(5-carboxy-1-methylpentylidene)carboxhydrazidesulfate salt], the IC50 [2] is reported as 0.2 µg/mL.
In the case of `CCC1(O)CC2CN(CCc3c([nH]c4ccccc34)C(C(=O)OC)(c3cc4c(cc3OC)N(C)C3C(O)(C(=O)NN=C(C)CCCC(=O)NCCC(=O)O)C(O)C5(CC)C=CCN6CCC43C65)C2)C1` (centres unmarked) [Example 6, 4-Desacetyl VLB C-3 N^2-(5-[(2-carboxyethyl)amino]-1-methyl-5-oxopentylidene)carboxhydrazide], the pKa (pKa; [7]) is reported as 5.1, the pKa (pKa; [6]) is reported as 6.6 and the pKa (pKa; [8]) is reported as 7.3.
In the case of `CCC1(O)CC2CN(CCc3c([nH]c4ccccc34)C(C(=O)OC)(c3cc4c(cc3OC)N(C)C3C(O)(C(=O)NN=C(C)CCCC(=O)NCCC(=O)O)C(O)C5(CC)C=CCN6CCC43C65)C2)C1` (centres unmarked) [Example 7, 4-Desacetyl VLB C-3 N^2-(5-[(2-carboxyethyl)amino]-1-methyl-5-oxopentylidene)carboxhydrazide sulfate salt], the IC50 [2] is reported as 0.095 µg/mL.
Work on `CCC1(O)CC2CN(CCc3c([nH]c4ccccc34)C(C(=O)OC)(c3cc4c(cc3OC)N(C)C3C(O)(C(=O)NN=C(C)CCCCC(=O)NCCC(=O)O)C(O)C5(CC)C=CCN6CCC43C65)C2)C1` (centres unmarked) [Example 8, 4-Desacetyl VLB C-3 N^2-(6-[(2-carboxyethyl)amino]-1-methyl-6-oxohexylidene)carboxhydrazide] yielded a pKa (pKa; [7]) of 5, a pKa (pKa; [6]) of 6.2 and a pKa (pKa; [8]) of 7.8.
For `CCC1(O)CC2CN(CCc3c([nH]c4ccccc34)C(C(=O)OC)(c3cc4c(cc3OC)N(C)C3C(O)(C(=O)NN=C(C)CCCCC(=O)NCCC(=O)O)C(O)C5(CC)C=CCN6CCC43C65)C2)C1` (centres unmarked) [Example 9, 4-Desacetyl VLB C-3 N^2-(6-[(2-carboxyethyl)amino]-1-methyl-6-oxohexylidene)carboxhydrazide sulfate salt], the IC50 [3] was 0.043 µg/mL, the “% Inhibition” value [4, 9] was 43% and the “% Inhibition” value [4, 10] was 35%. The IC50 [2] was 0.068 µg/mL.
For `CCC1(O)CC2CN(CCc3c([nH]c4ccccc34)C(C(=O)OC)(c3cc4c(cc3OC)N(C)C3C(O)(C(=O)NNC(C)CCC(=O)O)C(O)C5(CC)C=CCN6CCC43C65)C2)C1` (centres unmarked) [Example 10, 4-Desacetyl VLB C-3 N^2-(3-carboxy-1-methylpropyl)carboxhydrazide], the “pKa (first value)” value (pKa) was 5.3, the “pKa (second value)” value (pKa) was 6.9 and the “pKa (third value)” value (pKa) was 7.9.
Compound `CCC1(O)CC2CN(CCc3c([nH]c4ccccc34)C(C(=O)OC)(c3cc4c(cc3OC)N(C)C3C(O)(C(=O)NNC(C)CCC(=O)O)C(O)C5(CC)C=CCN6CCC43C65)C2)C1` (centres unmarked) [Example 11, 4-Desacetyl VLB C-3 N^2-(3-carboxy-1-methylpropyl)carboxhydrazide sulfate salt] has an IC50 [2] of 0.1 µg/mL.
`CCC1(O)CC2CN(CCc3c([nH]c4ccccc34)C(C(=O)OC)(c3cc4c(cc3OC)N(C)C3C(O)(C(=O)NNC(C)CCCCC(=O)O)C(O)C5(CC)C=CCN6CCC43C65)C2)C1` (centres unmarked) [Example 13, 4-Desacetyl VLB C-3 N^2-(5-carboxy-1-methylpentyl)carboxhydrazide sulfate salt] showed an IC50 [2] of 0.4 µg/mL.
In the case of `CCC1(O)CC2CN(CCc3c([nH]c4ccccc34)C(C(=O)OC)(c3cc4c(cc3OC)N(C)C3C(O)(C(=O)NNC(C)CCCC(=O)NCCC(=O)O)C(O)C5(CC)C=CCN6CCC43C65)C2)C1` (centres unmarked) [Example 14, 4-Desacetyl VLB C-3 N^2-(5-[(2-carboxyethyl)amino]-1-methyl-5-oxopentyl)carboxhydrazide], the pKa (pKa; [7]) is reported as 5.7, the pKa (pKa; [6]) is reported as 6.7 and the pKa (pKa; [8]) is reported as 7.9.
In the case of `CCC1(O)CC2CN(CCc3c([nH]c4ccccc34)C(C(=O)OC)(c3cc4c(cc3OC)N(C)C3C(O)(C(=O)NNC(C)CCCC(=O)NCCC(=O)O)C(O)C5(CC)C=CCN6CCC43C65)C2)C1` (centres unmarked) [Example 15, 4-Desacetyl VLB C-3 N^2-(5-[(2-carboxyethyl)amino]1-methyl-5-oxopentyl)carboxhydrazide sulfate salt], the IC50 [2] is reported as 0.046 µg/mL.
For `CCC1(O)CC2CN(CCc3c([nH]c4ccccc34)C(C(=O)OC)(c3cc4c(cc3OC)N(C)C3C(O)(C(=O)NNC(C)CCCCC(=O)NCCC(=O)O)C(O)C5(CC)C=CCN6CCC43C65)C2)C1` (centres unmarked) [Example 17, 4-Desacetyl VLB C-3 N^2-(6-[(2-carboxyethyl)amino]-1-methyl-6-oxohexyl)carboxhydrazide sulfate salt], the IC50 [3] was 0.217 µg/mL, the “% Inhibition” value [4, 9] was 20% and the “% Inhibition” value [4, 10] was 39%. The IC50 [2] was 0.039 µg/mL.
For `CCC1(O)CC2CN(CCc3c([nH]c4ccccc34)C(C(=O)OC)(c3cc4c(cc3OC)N(C)C3C(O)(C(=O)NNC(C)CCCCC(=O)NCCC(=O)OC)C(O)C5(CC)C=CCN6CCC43C65)C2)C1` (centres unmarked) [Example 30, 4-Desacetyl VLB C-3 N^2-(6-[(3-methoxy-3-oxopropyl)amino]-1-methyl-6-oxohexyl)carboxhydrazide], the pKa (pKa; [5]) was 5.4 and the pKa (pKa; solvent not given, read-out: pKa (second value)) was 7.5.
In the case of `CC[C@]1(O)C[C@@H]2CN(CCc3c([nH]c4ccccc34)[C@@](C(=O)OC)(c3cc4c(cc3OC)N(C)[C@H]3[C@@](O)(C(=O)OC)[C@H](OC(C)=O)[C@]5(CC)C=CCN6CC[C@]43[C@@H]65)C2)C1` [VLB, vincaleukoblastine], the “found active in the treatment” value [1] is listed as “active”.
In the case of `CCC1CC2CN(CCc3c([nH]c4ccccc34)C(C(=O)OC)(c3cc4c(cc3OC)N(C)C3C(O)(C(=O)OC)C(OC(C)=O)C5(CC)C=CCN6CCC43C65)C2)C1` (centres unmarked) [deoxy VLB "A"], the “found active in the treatment” value [1] is listed as “active”.
For `CCC1(O)CN2CCc3c([nH]c4ccccc34)C(C(=O)OC)(c3cc4c(cc3OC)N(C)C3C(O)(C(=O)OC)C(OC(C)=O)C5(CC)C=CCN6CCC43C65)CC(O)(C2)C1` (centres unmarked) [leurocolombine], the “found active in the treatment” value [1] is listed as “active”.
For `CC[C@]12CN3CCc4c([nH]c5ccccc45)[C@@](C(=O)OC)(c4cc5c(cc4OC)N(C=O)[C@H]4[C@@](O)(C(=O)OC)[C@H](OC(C)=O)[C@]6(CC)C=CCN7CC[C@]54[C@@H]76)C[C@@H](C3)[C@H]1O2` [leuroformine], the “found active in the treatment” value [1] is listed as “active”.
In the case of `CC[C@]12CN3CCc4c([nH]c5ccccc45)[C@@](C(=O)OC)(c4cc5c(cc4OC)N(C)[C@H]4[C@@](O)(C(=O)OC)[C@H](OC(C)=O)[C@]6(CC)C=CCN7CC[C@]54[C@@H]76)C[C@H](C3)[C@H]1O2` [leurosine], the “found active in the treatment” value [1] is listed as “active”.
In the case of `CCC1(O)CN2CCc3c([nH]c4ccccc34)C(C(=O)OC)(c3cc4c(cc3OC)N(C)C3C(O)(C(=O)OC)C(OC(C)=O)C5(CC)C=CCN6CCC43C65)CC(C2)C1O` (centres unmarked) [vincadioline], the “found active in the treatment” value [1] is given as “active”.
In the case of `CC[C@]1(O)C[C@H]2CN(CCc3c([nH]c4ccccc34)[C@@](C(=O)OC)(c3cc4c(cc3OC)N(C=O)[C@H]3[C@@](O)(C(=O)OC)[C@H](OC(C)=O)[C@]5(CC)C=CCN6CC[C@]43[C@@H]65)C2)C1` [vincristine, leurocristine], the “found active in the treatment” value [1] is listed as “active”.
For leurosidine, the “found active in the treatment” value [1] is given as “active”.
